Data published in paper PMC5405701 (ChemMedChem, 2017).

Assays:
[1] = target: ERα (Homo sapiens, UniProt P03372); assay: cell-based; type: cell-based
[2] = target: T1, human ERα ligand binding domain (LBD) (Homo sapiens, UniProt P03372); assay: competitive fluorometric; conditions: relative to parent 2a (compared to 2a and 4a)
T1 sequence (P03372 311-547 limits assumed): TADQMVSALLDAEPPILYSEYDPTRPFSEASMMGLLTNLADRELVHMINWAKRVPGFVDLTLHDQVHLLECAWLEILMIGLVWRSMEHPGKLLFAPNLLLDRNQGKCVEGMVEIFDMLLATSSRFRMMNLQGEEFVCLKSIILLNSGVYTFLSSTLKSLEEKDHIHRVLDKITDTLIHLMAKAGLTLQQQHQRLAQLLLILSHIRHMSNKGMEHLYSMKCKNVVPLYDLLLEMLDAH

[3] = target: human ERβ ligand binding domain (LBD) (Homo sapiens, UniProt Q92731); assay: competitive fluorometric; conditions: ratio of RBA ERβ to RBA ERα
Chain of human ERβ ligand binding domain (LBD) (Q92731 264-498 limits assumed): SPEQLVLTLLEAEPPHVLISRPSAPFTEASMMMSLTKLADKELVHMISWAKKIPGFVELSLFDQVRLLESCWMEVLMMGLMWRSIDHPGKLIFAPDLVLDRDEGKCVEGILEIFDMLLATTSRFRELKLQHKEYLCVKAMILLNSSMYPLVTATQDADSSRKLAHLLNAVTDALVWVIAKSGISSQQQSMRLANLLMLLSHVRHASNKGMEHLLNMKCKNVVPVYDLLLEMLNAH

[4] = tested on: MCF-7 breast cancer cells; assay: antiproliferative activity, MTT assay, MCF-7; conditions: Homo sapiens, MCF7, 72 h, read-out: MCF-7 Inhibition (%)
[5] = target: ERβ (Homo sapiens, UniProt Q92731); assay: cell-based; type: cell-based
Chain of ERβ (Q92731 whole entry): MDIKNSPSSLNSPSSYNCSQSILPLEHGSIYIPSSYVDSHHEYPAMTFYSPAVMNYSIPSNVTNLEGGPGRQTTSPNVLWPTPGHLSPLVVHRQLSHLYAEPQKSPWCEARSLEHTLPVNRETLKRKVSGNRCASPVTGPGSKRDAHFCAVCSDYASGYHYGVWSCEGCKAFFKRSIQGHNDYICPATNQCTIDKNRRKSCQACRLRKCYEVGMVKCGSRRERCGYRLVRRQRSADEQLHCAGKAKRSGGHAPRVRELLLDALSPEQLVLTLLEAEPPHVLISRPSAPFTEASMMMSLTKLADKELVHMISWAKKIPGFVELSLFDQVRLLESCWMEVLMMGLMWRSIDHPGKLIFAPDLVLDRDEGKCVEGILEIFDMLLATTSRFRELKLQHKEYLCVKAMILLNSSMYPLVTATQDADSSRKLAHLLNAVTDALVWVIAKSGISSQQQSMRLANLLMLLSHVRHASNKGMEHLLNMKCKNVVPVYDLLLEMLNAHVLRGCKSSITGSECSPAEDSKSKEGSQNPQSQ

Chain of ERα (P03372 whole entry, the tested form may be a part): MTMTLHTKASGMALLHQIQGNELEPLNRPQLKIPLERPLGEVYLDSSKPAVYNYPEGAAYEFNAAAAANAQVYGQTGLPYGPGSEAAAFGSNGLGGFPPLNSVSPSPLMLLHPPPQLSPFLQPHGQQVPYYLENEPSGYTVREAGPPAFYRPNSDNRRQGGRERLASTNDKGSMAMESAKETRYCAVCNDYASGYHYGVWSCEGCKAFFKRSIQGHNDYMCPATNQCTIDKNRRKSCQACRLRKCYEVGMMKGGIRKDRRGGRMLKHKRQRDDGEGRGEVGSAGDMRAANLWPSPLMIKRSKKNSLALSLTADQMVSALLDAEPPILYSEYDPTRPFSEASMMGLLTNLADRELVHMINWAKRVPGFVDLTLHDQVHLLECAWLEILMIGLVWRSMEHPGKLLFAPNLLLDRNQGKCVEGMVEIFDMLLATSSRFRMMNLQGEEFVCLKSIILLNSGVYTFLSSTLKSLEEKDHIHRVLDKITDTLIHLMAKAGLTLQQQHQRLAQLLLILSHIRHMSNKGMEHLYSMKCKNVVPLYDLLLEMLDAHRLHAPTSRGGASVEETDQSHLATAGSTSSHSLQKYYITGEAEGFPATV

## Cc1cc(O)ccc1-c1cc(Br)c(-c2ccc(O)cc2C)[se]1 [Compound 6b, 3-Bromo-2,5-bis(4-hydroxy-2-methylphenyl)selenophene]
[1]
  EC50: 790 nM
[1]; maximal response as percentage of response to 10^−8 M E2, HEK293T
  Agonist Mode ERα Eff (%E2): 21 ± 5 %E2
[2]
  fold increase in binding affinity for ERα over 2a: more than 23 fold
[3]
  β/α: 0.74
[4]
  inhibition at 10 µM: 2.5%
[5]
  EC50: 9 nM
[5]; HEK-293T, 24 h, read-out: Agonist Mode ERβ Eff (%E2)
  Emax: 69 ± 9%
[5]; reporter gene assay, HEK293T
  transcriptional activity profile on ERβ: antagonist
